Structures are written as SMILES. A value given as a limit tells only on which side of the number the result lay.

The first experiment concerns the target histone deacetylase (HDAC Enzyme). Put plainly: Inhibition of Histone Deacetylase Enzymatic Activity (Boc-Lys(Ac)-AMC, Fluor-de-Lys developer). In kind it is biochemical. Conditions: Table 9; read-out: HDAC Inhibition (IC50 μM) HDAC Enzyme. The protocol: The following protocol is used to assay the compounds of the invention.
The mixture is pre-incubated for 5 minutes at room temperature. The reaction is started by bringing the temperature to 37° C. and adding 16 μl substrate. Total reaction volume is 50 μl.
In the Tables 8, 9 and 10, A≦[…]<B≦0.1 μM; 0.1 μM<C≦1 μM; and 1 μM<D≦10 μM.
`O=C(NO)c1cnc(N2CC3CC(CN(c4cc(C(F)(F)F)ccn4)C3)C2)nc1` [N-hydroxy-2-(7-(4-(trifluoromethyl)pyridin-2-yl)-3,7-diazabicyclo[3.3.1]nonan-3-yl)pyrimidine-5-carboxamide]: the IC50 was in the range of 0.1 to 1 µM. `O=C(NO)c1cnc(N2C[C@H]3C[C@@H]2CN3c2cc(C(F)(F)F)ccn2)nc1` [N-hydroxy-2-((1R,4R)-5-(4-(trifluoromethyl)pyridin-2-yl)-2,5-diazabicyclo[2.2.1]heptan-2-yl)pyrimidine-5-carboxamide]: the IC50 is < 0.05 µM.

On to `Cc1cccc(N2C[C@H]3C[C@@H]2CN3c2ncc(C(=O)NO)cn2)c1` [N-hydroxy-2-((1R,4R)-5-m-tolyl-2,5-diazabicyclo[2.2.1]heptan-2-yl)pyrimidine-5-carboxamide], for which the half-inhibitory concentration (IC50) was in the range of 0.05 to 0.1 µM.

Take `Cc1ccc(N2C[C@H]3C[C@@H]2CN3c2ncc(C(=O)NO)cn2)cc1` [N-hydroxy-2-((1R,4R)-5-p-tolyl-2,5-diazabicyclo[2.2.1]heptan-2-yl)pyrimidine-5-carboxamide]: the IC50 was < 0.05 µM. In the case of `O=C(NO)c1cnc(N2C[C@@H]3C[C@H]2CN3c2ccccc2C(F)(F)F)nc1` [N-hydroxy-2-((1S,4S)-5-(2-(trifluoromethyl)phenyl)-2,5-diazabicyclo[2.2.1]heptan-2-yl)pyrimidine-5-carboxamide], the half-inhibitory concentration (IC50) lay in the range of 0.1 to 1 µM. Still for that read-out and setting: next, `O=C(NO)c1cnc(N2C[C@@H]3C[C@H]2CN3c2cc(C(F)(F)F)nc3ccccc23)nc1` [N-hydroxy-2-((1S,4S)-5-(2-(trifluoromethyl)quinolin-4-yl)-2,5-diazabicyclo[2.2.1]heptan-2-yl)pyrimidine-5-carboxamide]: < 0.05 µM; `O=C(NO)c1cnc(N2C[C@@H]3C[C@H]2CN3c2cccc(OC(F)(F)F)c2)nc1` [N-hydroxy-2-((1S,4S)-5-(3-(trifluoromethoxy)phenyl)-2,5-diazabicyclo[2.2.1]heptan-2-yl)pyrimidine-5-carboxamide]: < 0.05 µM. Consider `O=C(NO)c1cnc(N2C[C@@H]3C[C@H]2CN3C(=O)c2cccc(C(F)(F)F)c2)nc1` [N-hydroxy-2-((1S,4S)-5-(3-(trifluoromethyl)benzoyl)-2,5-diazabicyclo[2.2.1]heptan-2-yl)pyrimidine-5-carboxamide], for which the half-maximal inhibitory concentration (IC50) was in the range of 0.05 to 0.1 µM.

`O=C(NO)c1cnc(N2C[C@@H]3C[C@H]2CN3c2cccc(C(F)(F)F)c2)nc1` [N-hydroxy-2-((1S,4S)-5-(3-(trifluoromethyl)phenyl)-2,5-diazabicyclo[2.2.1]heptan-2-yl)pyrimidine-5-carboxamide]: the 50% inhibitory concentration (IC50) was < 0.05 µM.

`O=C(NO)c1cnc(N2C[C@@H]3C[C@H]2CN3c2cccc(C(F)(F)F)c2)s1` [N-hydroxy-2-((1S,4S)-5-(3-(trifluoromethyl)phenyl)-2,5-diazabicyclo[2.2.1]heptan-2-yl)thiazole-5-carboxamide]: the IC50 is < 0.05 µM. Same read-out and setting: as for `O=C(NO)c1cnc(N2C[C@@H]3C[C@H]2CN3c2cccc(SC(F)(F)F)c2)nc1` [N-hydroxy-2-((1S,4S)-5-(3-(trifluoromethylthio)phenyl)-2,5-diazabicyclo[2.2.1]heptan-2-yl)pyrimidine-5-carboxamide], the figure is < 0.05 µM; as for `COc1cccc(N2C[C@@H]3C[C@H]2CN3c2ncc(C(=O)NO)cn2)c1` [N-hydroxy-2-((1S,4S)-5-(3-methoxyphenyl)-2,5-diazabicyclo[2.2.1]heptan-2-yl)pyrimidine-5-carboxamide], < 0.05 µM. As to `O=C(NO)c1cnc(N2C[C@@H]3C[C@H]2CN3c2ccc(C(F)(F)F)cc2)nc1` [N-hydroxy-2-((1S,4S)-5-(4-(trifluoromethyl)phenyl)-2,5-diazabicyclo[2.2.1]heptan-2-yl)pyrimidine-5-carboxamide], the IC50 was < 0.05 µM. For `O=C(NO)c1cnc(N2C[C@@H]3C[C@H]2CN3c2cc(C(F)(F)F)ccn2)nc1` [N-hydroxy-2-((1S,4S)-5-(4-(trifluoromethyl)pyridin-2-yl)-2,5-diazabicyclo[2.2.1]heptan-2-yl)pyrimidine-5-carboxamide], the IC50 was < 0.05 µM.

For the compound `O=C(NO)c1cnc(N2C[C@@H]3C[C@H]2CN3c2nccc(C(F)(F)F)n2)nc1` [N-hydroxy-2-((1S,4S)-5-(4-(trifluoromethyl)pyrimidin-2-yl)-2,5-diazabicyclo[2.2.1]heptan-2-yl)pyrimidine-5-carboxamide], the IC50 is < 0.05 µM. Same read-out and setting: next, `O=C(NO)c1cnc(N2C[C@@H]3C[C@H]2CN3c2cncc(C(F)(F)F)c2)nc1` [N-hydroxy-2-((1S,4S)-5-(5-(trifluoromethyl)pyridin-3-yl)-2,5-diazabicyclo[2.2.1]heptan-2-yl)pyrimidine-5-carboxamide]: < 0.05 µM. For the compound `O=C(NO)c1cnc(N2C[C@@H]3C[C@H]2CN3c2cccc(C(F)(F)F)n2)nc1` [N-hydroxy-2-((1S,4S)-5-(6-(trifluoromethyl)pyridin-2-yl)-2,5-diazabicyclo[2.2.1]heptan-2-yl)pyrimidine-5-carboxamide], the IC50 was < 0.05 µM. For the compound `O=C(NO)c1cnc(N2C[C@@H]3C[C@H]2CN3C(=O)N2CCCC2)nc1` [N-hydroxy-2-((1S,4S)-5-(pyrrolidine-1-carbonyl)-2,5-diazabicyclo[2.2.1]heptan-2-yl)pyrimidine-5-carboxamide], the 50% inhibitory concentration (IC50) lay in the range of 0.05 to 0.1 µM.

For `Cc1cccc(N2C[C@@H]3C[C@H]2CN3c2ncc(C(=O)NO)cn2)c1` [N-hydroxy-2-((1S,4S)-5-m-tolyl-2,5-diazabicyclo[2.2.1]heptan-2-yl)pyrimidine-5-carboxamide], the IC50 is < 0.05 µM.

Take `Cc1ccccc1N1C[C@@H]2C[C@H]1CN2c1ncc(C(=O)NO)cn1` [N-hydroxy-2-((1S,4S)-5-o-tolyl-2,5-diazabicyclo[2.2.1]heptan-2-yl)pyrimidine-5-carboxamide]: the IC50 lay within 0.05 to 0.1 µM. Same read-out and setting: as for `Cc1ccc(N2C[C@@H]3C[C@H]2CN3c2ncc(C(=O)NO)cn2)cc1` [N-hydroxy-2-((1S,4S)-5-p-tolyl-2,5-diazabicyclo[2.2.1]heptan-2-yl)pyrimidine-5-carboxamide], the figure is < 0.05 µM.

For the compound `O=C(NO)c1cnc(N2C[C@@H]3C[C@H]2CN3c2ccccc2)nc1` [N-hydroxy-2-((1S,4S)-5-phenyl-2,5-diazabicyclo[2.2.1]heptan-2-yl)pyrimidine-5-carboxamide], the IC50 was 0.05 to 0.1 µM. On the same count and under the same terms, as for `COc1cccc(N2CC3CC2CN3c2ccc(C(=O)NO)cc2)c1` (centres unmarked) [N-hydroxy-4-(5-(3-methoxyphenyl)-2,5-diazabicyclo[2.2.1]heptan-2-yl)benzamide], the figure is 0.1 to 1 µM; as for `Cc1cccc(N2CC3CC2CN3c2ccc(C(=O)NO)cc2)c1` (centres unmarked) [N-hydroxy-4-(5-m-tolyl-2,5-diazabicyclo[2.2.1]heptan-2-yl)benzamide], 0.1 to 1 µM; as for `O=C(NO)c1ccc(N2C[C@H]3C[C@@H]2CN3c2cc(C(F)(F)F)ccn2)cc1` [N-hydroxy-4-((1R,4R)-5-(4-(trifluoromethyl)pyridin-2-yl)-2,5-diazabicyclo[2.2.1]heptan-2-yl)benzamide], 1 to 10 µM.

The same experiment, now with this note: Table 10; read-out: HDAC Inhibition (IC50 μM) HDAC Enzyme.
As for `O=C(CCCCCN1C(=O)CN=C(c2ccccc2)c2ccccc21)NO` [(Z)-N-hydroxy-6-(2-oxo-5-phenyl-2,3-dihydro-1H-benzo[e][1,4]diazepin-1-yl)hexanamide], the half-inhibitory concentration (IC50) is 0.1 to 1 µM.

As for `O=C(CCCCCCCN1C(=O)CN=C(c2ccccc2)c2ccccc21)NO` [(Z)-N-hydroxy-8-(2-oxo-5-phenyl-2,3-dihydro-1H-benzo[e][1,4]diazepin-1-yl)octanamide], the half-maximal inhibitory concentration (IC50) is 0.1 to 1 µM. On the same count and under the same terms, as for `O=C(NO)c1cnc(N2CCn3c(nnc3C(F)(F)F)C2)nc1` [N-hydroxy-2-(3-(trifluoromethyl)-5,6-dihydro-[1,2,4]triazolo[4,3-a]pyrazin-7(8H)-yl)pyrimidine-5-carboxamide], the figure is 0.05 to 0.1 µM; as for `O=C(NO)c1cnc(N2CCn3c(nnc3-c3ccccc3)C2)nc1` [N-hydroxy-2-(3-phenyl-5,6-dihydro-[1,2,4]triazolo[4,3-a]pyrazin-7(8H)-yl)pyrimidine-5-carboxamide], < 0.05 µM.

Consider `O=C(NO)c1cnc(N2C[C@H]3C[C@@]3(c3ccccc3)C2)nc1` [N-hydroxy-2-((1R,5S)-1-phenyl-3-azabicyclo[3.1.0]hexan-3-yl)pyrimidine-5-carboxamide], for which the concentration for half-maximal inhibition (IC50) is 0.1 to 1 µM. The same measure, in the same setting: as for `CN1CCc2[nH]c3ccc(C(=O)NO)cc3c2C1` [N-hydroxy-2-methyl-2,3,4,5-tetrahydro-1H-pyrido[4,3-b]indole-8-carboxamide], the figure is 1 to 10 µM; as for `O=C(CCc1ccc(CN2C(=O)c3ccccc3Oc3ccccc32)cc1)NO` [N-hydroxy-3-(4-((11-oxodibenzo[b,f][1,4]oxazepin-10(11H)-yl)methyl)phenyl)propanamide], 0.1 to 1 µM; as for `O=C(NO)c1ccc(C#CCN2C(=O)c3ccccc3Oc3ccccc32)cc1` [N-hydroxy-4-(3-(11-oxodibenzo[b,f][1,4]oxazepin-10(11H)-yl)prop-1-ynyl)benzamide], < 0.05 µM. Same read-out and setting: next, `O=C(NO)c1ccc(CCCN2C(=O)c3ccccc3Oc3ccccc32)cc1` [N-hydroxy-4-(3-(11-oxodibenzo[b,f][1,4]oxazepin-10(11H)-yl)propyl)benzamide]: 0.05 to 0.1 µM.

On to `O=C(NO)c1ccc(N2C(=O)c3ccccc3Oc3ccccc32)cc1` [N-hydroxy-4-(11-oxodibenzo[b,f][1,4]oxazepin-10(11H)-yl)benzamide], for which the half-maximal inhibitory concentration (IC50) lay in the range of 0.1 to 1 µM.

Staying with this experiment, now noted: read-out: HDAC Inhibtion (IC50 μM) HDAC Enzyme.
Consider `CC(C)N1c2ccccc2N=C(c2ccc(C(=O)NO)cc2)c2cccnc21` [(Z)-N-hydroxy-4-(11-isopropyl-11H-benzo[b]pyrido[2,3-e][1,4]diazepin-5-yl)benzamide], for which the concentration for half-maximal inhibition (IC50) was < 0.05 µM. On the same count and under the same terms, next, `O=C(NO)c1ccc2c(c1)N=C(c1ccncc1)c1ccccc1O2` [(Z)-N-hydroxy-11-(pyridin-4-yl)dibenzo[b,f][1,4]oxazepine-8-carboxamide]: 0.1 to 1 µM. On the same count and under the same terms, as for `CN1c2ccccc2Oc2ccccc2C1c1ccc(C(=O)NO)cc1` (centres unmarked) [N-hydroxy-4-(10-methyl-10,11-dihydrodibenzo[b,f][1,4]oxazepin-11-yl)benzamide], the figure is 0.1 to 1 µM.

Source of the values: patent publication US8399452B2, “Dibenzo[b,f][1,4]oxazepin-11-yl-N-hydroxybenzamides as HDAC inhibitors” (Methylgene Inc., priority 2006, dated 2013).
